Source: patent publication US6677311B1, “Inducible HSV-TK in transformed cell populations” (priority 1988, dated 2004)

How the values were obtained:
[1] = tested on: COS cells; test: Inhibition of plasmid replication in cotransfected COS cells expressing HSV1-TK; assay type: cell-based, monkey; conditions: 10 μM drug; for reduction of total plasmid copy number (pSV2CAT) relative to no drug treatment: COS cells cotransfected with pSV2CAT, pApS1 (MTV-HSV1-TK), pRShGR, Dex 10^-7 M, 36 h; for decrease of replication of PRShGR': same cotransfection, similar to pSV2CAT
Description: The possibility was tested that HSVI-TK expressed from a transfected plasmid could metabolize anti-herpetic nucleosides to substrates capable of being metabolized by a cellular DNA polymerase. In principle, the incorporation of these activated drugs should lead to a net decrease in cellular DNA replication. Accordingly, a plasmid capable of replicating in COS cells [monkey kidney cells which express T antigen (Tag); See Gluzman, Y. in Cell, 23:175-182 (1981)], namely pSV2CAT (See FIG. 1a; a plasmid that contains the Simian virus 40 promoter region linked to the chloramphenicol acetyltransferase (CAT) gene; See Gorman, et al. in Mol. Cell. Biol., 2:1044-1051(1982)) was cotransfected with a plasmid, pApSI (a plasmid that contains the mouse mammary tumor virus long terminal repeat (MTV-LTR) linked to the HSV1-TK gene; See Chandler, et al., in Cell, 33:489-499 (1983)), expressing HSV1-TK gene under the control of the glucocorticoid inducible promoter of the mouse mammary tumor virus (MTV) (see FIG. 1a). Here, the expression of TK is dependent on both the presence of glucocorticoids, such as the synthetic dexamethasone (Dex), and the glucocorticoid receptor which activate the MTV-promoter in the presence of Dex. For this reason, a human glucocorticoid receptor (hGR) expression vector, PRShGR' (a human glucocorticoid receptor (hGR) expression vector that contains the Rous sarcoma virus long terminal repeat (RSV-LTR) linked to the human glucocorticoid receptor; See Giguere, et al., in Cell, 46:645-652 (1986)), was also cotransfected to insure high levels of this transacting factor. PRShGR' itself contains the origin of replication of SV40 and therefore is able to replicate in COS cells.
Semi-confluent COS cells were cotransfected by the calcium phosphate technique (See Graham, F. L. and van der Eb, A. J., Virology, 52:456-467 (1973) with 1 μg of pSV2CAT, 5 μg of pApS1 and 1 μg of pRShGR' and analyzed 36 hours later. The effect of ACV or FIAU on the replication of pSV2CAT was monitored by the reduction in the number of molecules of this plasmid as compared to a similar experiment conducted in the absence of these drugs. The cells were grown in Dulbecco media containing 5% FCS. Before each experiment, Dex, at a concentration of 10^−7 M, was added. Where the nucleoside analogs were tested, either ACV or FIAU was added to the media at a concentration of 10 μM. When the cells were trypsinized and washed after 24 hours, and then replaced, the new media contained the same concentration of Dex and ACV or FIAU as before. 12 hours later the cells were harvested and plasmid DNA was recovered. The plasmids were recovered from the transfected cells by the method of Hirt (see J. Mol. Biol., 26:365-269 (1967)). […]

[2] = tested on: rat fibroblast cell line #3B; test: Cell growth assay, HSV1-TK expressing 3B cells; assay type: cell-based
Description: To examine the effect on cellular DNA replication, the rat fibroblast cell line #3B (see Pfahl, et al. Proc. UCLA Symp. Conf. Steroid Hormone Action, ed. Ringold, G. (Liss, N.Y.), Vol. 75:161-168 (1987) that stably expresses the glucocorticoid inducible MTV-HSV1-TK gene, was used. Addition of Dex to these cells leads to a 50-fold increase in HSV1-TK activity. The effect of the drugs on the 3B cells was compared to the one obtained on the control rat 208 fibroblast cell line (see Quade, K. (1979) in Virology, 98:461-465 (1979), a cell line not expressing HSV1-TK). The experiments were performed by seeding cells at low density (3×10^4) in Dulbecco media containing 10% FCS. Cells were incubated with varying concentrations of drug placed in the media 12 hours after the cells were plated either in the presence or in the absence of 10^−7 M Dexamethasone. After a total period of 72 hours, viable cells were recognized by Trypan blue exclusion. Cell numbers were determined with a Neubauer Hemocytometer. The efficacy of the drugs was monitored as reduction in the total number of viable cells.

[3] = tested on: spleen and thymus; test: FIAU cell killing in KHTK transgenic mice (miniosmotic pump); assay type: in vivo, mouse
Description: Furthermore, to test if the protein was biologically active, a TK assay [See Fyfe et al., J. Biol. Chem. 253:8721-8727 (1978)] was performed on extracts from these tissues. […] To evaluate the efficacy of the system in vivo, an experiment was performed in which transgenic and non-transgenic littermates were implanted subcutaneously with a miniosmotic pump (model 2002, Alzet, Alza Corp., Palo Alto, Calif.). Transgenic and nontransgenic littermates were then treated for one week with a 50 mg/ml solution of FIAU in PBS released by the Miniosmotic pump. FIAU was chosen because it was most efficient in blocking the DNA replication in vitro. The dose was calculated to obtain serum levels of the drug shown to be effective in cell culture. The animals were sacrificed one week after the pump was implanted. […] In the transgenic mouse, most organs were also normal with the dramatic exception of the spleen and thymus which were visually atrophied.

[4] = transgenic mouse, 50 mg/ml FIAU in PBS by miniosmotic pump, one week

SMILES | reduction of total plasmid copy number (pSV2CAT) relative to no drug treatment [1] | decrease of replication of PRShGR' [1] | reduction of viability ([2]; 0.1 μM FIAU) | cell death ([2]; 3.0 μM FIAU, in the absence of severe non-specific toxicity) | autopsy findings in control mouse ([3]; nontransgenic littermate, one week of FIAU treatment) | reduction of the cell number in the spleen [3, 4] | reduction of the cell number in the thymus [3, 4] | cell death ([2]; 3.0 μM ACV, 3B cells in the presence of Dex, 72 h) | cell death ([2]; 10 μM ACV, 3B cells in the presence of Dex) | toxicity independent of the presence or absence of Dex ([2]; 100 μM ACV) | cell death ([2]; 100 μM ACV, 3B cells in the presence of Dex) | effect on number of viable cells ([2]; 0.1 to 1.0 μM, 72 h)
O=c1[nH]c(=O)n([C@H]2O[C@H](CO)[C@@H](O)[C@@H]2F)cc1I [FIAU, 1-(2-deoxy-2-fluoro-a-D-arabinofuranosil)-5-iodouracil] | 70% | 70% | more than 60% | 98% | no apparent toxic effects | 57% | 83% | – | – | – | – | –
Nc1nc2c(ncn2COCCO)c(=O)[nH]1 [ACV, 9-[(2-hydroxyethoxy)methyl]guanine] | 40% | 40% | – | – | – | – | – | 20% | 60% | non-specific toxicity | 98% | no effect
